Test results taken from US9951088B2, “D2 receptor modulators and methods of use thereof in the treatment of diseases and disorders” (SUNOVION PHARMACEUTICALS INC., priority 2012, dated 2018).

Assays:
[1] = molecular target: T1, long isoform of human D2 receptor (Homo sapiens, UniProt P14416); assay: Arrestin Antagonist Assay (DRD2L PathHunter CHO-K1 cells, vs EC80 dopamine); settings: for Emax: CHO-K1, read-out: β-arrestin (antagonist mode) Imax
Method: (§1) Cell Lines: Activities of the compounds were assessed using a Chinese Hamster Ovary (CHO—K1) cell line that recombinantly expressed the long isoform of human D2 receptor (DRD2L PathHunter cells). The D2 receptor DNA sequence was modified to contain a “ProLink” at its C-terminus which allowed complementation with an “enzyme acceptor” (EA)-tagged β-arrestin protein. The recruitment of the O-arrestin by the D2 receptor led to complementation of the ProLink and EA and formation of active β-galactosidase which generated a D2-specific signal that was measured.
Arrestin Antagonist Assay: One day prior to testing, a vial of high density stock of DRD2L PathHunter cells was thawed, and 1×10^7 cells diluted into 40 mL of growth media (Ham's F12/10% HI FBS/1% PSG). 20 μL cells per well were seeded directly into assay plates, and the plates were allowed to rest for 1 h at RT before incubating in a plate incubator overnight.
The plate was incubated for 30 min at 37° C. 15 μL PathHunter detection reagent was added to each well of the assay plate, which was then covered and incubated for 1 h at RT. The plate was read on an Envision reader using the Luminescence protocol, and the data were exported for analysis.
The IC50 values (concentration producing a half-maximal inhibitory response) were determined by non-linear regression analysis of the concentration-response curves.

[2] = molecular target: T1, long isoform of human D2 receptor; assay: Arrestin Agonist Assay (DRD2L PathHunter CHO-K1 cells, β-arrestin recruitment); settings: for Emax: CHO-K1, read-out: β-arrestin (agonist mode) Emax
Method: as §1
Arrestin Agonist Assay: One day prior to testing, a vial of high density stock of DRD2L PathHunter cells was thawed, and 1×10^7 cells diluted into 40 mL of growth media (Ham's F12/10% HI FBS/1% PSG). 20 μL cells per well were seeded directly into assay plates, and the plates were allowed to rest for 1 h at RT before incubating in a plate incubator overnight.
5 μL diluted compound was added to cells in each well, and the assay plate was incubated for 90 min at 37° C. 12.5 μL PathHunter detection reagent was added to each well of the assay plate, which was then covered and incubated for 1 h at RT. The plate was read on an Envision reader using the Luminescence protocol, and the data were exported for analysis.
(§2) The agonist Emax results were expressed as a percent of the dopamine control response ((measured specific response/control specific agonist response)×100) obtained in the presence of test article. The EC50 values (concentration producing a half-maximal specific response) were determined by non-linear regression analysis of the concentration-response curves.

[3] = molecular target: T1, long isoform of human D2 receptor; assay: cAMP HTRF Agonist Assay (DRD2L PathHunter CHO-K1 cells, forskolin-stimulated); settings: for Emax: CHO-K1, read-out: cAMP (agonist mode) Emax
Method: Cell Lines: Activities of the compounds were assessed using a Chinese Hamster Ovary (CHO—K1) cell line that recombinantly expressed the long isoform of human D2 receptor (DRD2L PathHunter cells). The D2 receptor DNA sequence was modified to contain a “ProLink” at its C-terminus which allowed complementation with an “enzyme acceptor” (EA)-tagged β-arrestin protein. The recruitment of the O-arrestin by the D2 receptor led to complementation of the ProLink and EA and formation of active β-galactosidase which generated a D2-specific signal that was measured. The cAMP assay was measured in the same D2-expressing cell line. The D2 receptor inhibited cAMP formation so that the basal levels of cAMP were increased by the addition of an adenylate cyclase stimulator, forskolin.
cAMP HTRF Agonist Assay: Two days prior to testing, a vial of high density stock of DRD2L PathHunter cells was thawed, and cells were diluted into 10 mL of growth media (Ham's F12/10% HI FBS/1% PSG) and used to seed a T225 flask containing 50 mL of growth media. Cells were cultured for 2 days.
On the day of the assay, cells were dissociated in 5 mL cell dissociation buffer (enzyme free—Invitrogen) for 10-15 minutes at 37° C. Dissociated cells were diluted with 10 mL of growth media and counted. Cell counts were routinely ˜2×10^7 per T225. Cells were then pelleted at 1500 rpm for 5 min. Supernatant was aspirated, and cells were re-suspended in HBSS/20 mM Hepes, pH 7.4 to a cell density of 1×10^6/mL.
cAMP levels were determined using the Cisbio HTRF method. HRTF reagents (cAMP-HTRF acceptor fluorophore (d2) conjugate and cryptate-labeled anti-cAMP antibody) were prepared according to maunfacturers instructions. 5 μL of each were added to each well of an assay plate and incubated for 1 h at RT. The plate was then read on an Envision reader using the HTRF protocol, and data were exported for analysis.
as §2

T1 sequence (P14416 whole entry, canonical isoform): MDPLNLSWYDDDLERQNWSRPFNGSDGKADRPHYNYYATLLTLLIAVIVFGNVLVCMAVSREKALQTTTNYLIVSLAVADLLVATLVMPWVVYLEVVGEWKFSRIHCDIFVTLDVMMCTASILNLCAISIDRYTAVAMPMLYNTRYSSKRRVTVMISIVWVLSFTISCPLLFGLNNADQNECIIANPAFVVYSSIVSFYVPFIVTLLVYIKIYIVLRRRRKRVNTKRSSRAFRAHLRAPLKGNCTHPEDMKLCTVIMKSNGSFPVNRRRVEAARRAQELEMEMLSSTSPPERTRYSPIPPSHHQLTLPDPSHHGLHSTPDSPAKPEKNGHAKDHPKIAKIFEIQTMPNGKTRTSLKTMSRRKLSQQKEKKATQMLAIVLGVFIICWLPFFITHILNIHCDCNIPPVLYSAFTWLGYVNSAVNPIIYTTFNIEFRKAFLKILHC

Row | SMILES | IC50 [1] | Emax [1] | EC50 [2] | Emax [2] | IC50 [3] | Emax [3]
1 | O=C1CCc2ccc(OCCCCN3CCc4sccc4C3)cc2N1 [Compound 27, 7-(4-(6,7-dihydrothieno[3,2-c]pyridin-5(4H)-yl)butoxy)-3,4-dihydroquinolin-2(1H)-one] | 10 to 100 nM | > 75% | > 10000 nM | < 10% | < 10 nM | 10 to 25%
2 | N#Cc1cccc2c1CN(CCCCOc1ccc3c(n1)NC(=O)CC3)CC2 [Compound 80, 2-(4-((7-oxo-5,6,7,8-tetrahydro-1,8-naphthyridin-2-yl)oxy)butyl)-1,2,3,4-tetrahydroisoquinoline-8-carbonitrile] | 100 to 1000 nM | > 75% | > 10000 nM | < 10% | > 10000 nM | < 10%
3 | CN(C)c1ncnc2c1CCN(CCCCOc1ccc3c(c1)NC(=O)CC3)C2 [Compound 29, 7-(4-(4-(dimethylamino)-5,6-dihydropyrido[3,4-d]pyrimidin-7(8H)-yl)butoxy)-3,4-dihydroquinolin-2(1H)-one] | 100 to 1000 nM | > 75% | 100 to 1000 nM | 25 to 50% | 10 to 100 nM | 25 to 50%
4 | Oc1cccc2ccc(OCCCCN3CCN(c4cccc5ccccc45)CC3)nc12 [Compound 6, 2-(4-(4-(naphthalen-1-yl)piperazin-1-yl)butoxy)quinolin-8-ol] | 100 to 1000 nM | 50 to 75% | 100 to 1000 nM | 25 to 50% | 10 to 100 nM | 25 to 50%
5 | O=C1NCCc2ccc(OCCCCN3CCc4ccsc4C3)nc2N1 [Compound 87] | 10 to 100 nM | > 75% | > 10000 nM | < 10% | > 10000 nM | < 10%
6 | O=C1CCc2ccc(OCCCCN3CCc4c(cnn4-c4cccc(Cl)c4)C3)cc2N1 [Compound 32, 7-(4-(1-(3-chlorophenyl)-6,7-dihydro-1H-pyrazolo[4,3-c]pyridin-5(4H)-yl)butoxy)-3,4-dihydroquinolin-2(1H)-one] | < 10 nM | > 75% | > 10000 nM | < 10% | > 10000 nM | < 10%
7 | Clc1cccc(N2CCN(CCCCOc3ccc4cn[nH]c4n3)CC2)c1Cl [Compound 1, 6-(4-(4-(2,3-dichlorophenyl)piperazin-1-yl)butoxy)-1H-pyrazolo[3,4-b]pyridine] | < 10 nM | > 75% | > 10000 nM | < 10% | < 10 nM | 25 to 50%
8 | O=C1CCc2ccc(OCCCCN3CCc4ccsc4C3)cc2N1 [Compound 28, 7-(4-(4,5-dihydrothieno[2,3-c]pyridin-6(7H)-yl)butoxy)-3,4-dihydroquinolin-2(1H)-one] | 100 to 1000 nM | > 75% | > 10000 nM | < 10% | < 10 nM | 10 to 25%
9 | N#Cc1cccnc1N1CCN(CCCCOc2ccc3cccc(O)c3n2)CC1 [Compound 22, 2-(4-(4-((8-hydroxyquinolin-2-yl)oxy)butyl)piperazin-1-yl)nicotinonitrile] | 100 to 1000 nM | 25 to 50% | 10 to 100 nM | 25 to 50% | < 10 nM | 25 to 50%
10 | COc1ccc2c(c1)CCN(CCCCOc1ccc3c(n1)NC(=O)CC3)C2 [Compound 71, 7-(4-(6-methoxy-3,4-dihydroisoquinolin-2(1H)-yl)butoxy)-3,4-dihydro-1,8-naphthyridin-2(1H)-one] | 10 to 100 nM | > 75% | > 10000 nM | < 10% | > 10000 nM | < 10%
11 | Clc1cccc(N2CCN(CCCCOc3ccc4cn[nH]c4c3)CC2)c1 [Compound 98, 6-(4-(4-(3-chlorophenyl)piperazin-1-yl)butoxy)-1H-indazole] | 100 to 1000 nM | 25 to 50% | 10 to 100 nM | 25 to 50% | 10 to 100 nM | 50 to 75%
12 | COc1ccc2c(c1)CCN(CCCCOc1ccc3cccc(O)c3n1)C2 [Compound 13, 2-(4-(6-methoxy-3,4-dihydroisoquinolin-2(1H)-yl)butoxy)quinolin-8-ol] | 1000 to 10000 nM | > 75% | < 10 nM | 10 to 25% | > 10000 nM | < 10%
13 | O=C1CCc2ccc(OCCCCN3CCc4c(cnn4-c4ccccc4)C3)cc2N1 [Compound 31, 7-(4-(1-phenyl-6,7-dihydro-1H-pyrazolo[4,3-c]pyridin-5(4H)-yl)butoxy)-3,4-dihydroquinolin-2(1H)-one] | > 10000 nM | < 10% | < 10 nM | > 75% | < 10 nM | > 75%
14 | CC(=O)Nc1cccc(OCCCCN2CCc3ccccc3C2)n1 [Compound 40, N-(6-(4-(3,4-dihydroisoquinolin-2(1H)-yl)butoxy)pyridin-2-yl)acetamide] | 100 to 1000 nM | > 75% | > 10000 nM | < 10% | > 10000 nM | < 10%
15 | Cc1ccc2c(c1)CN(CCCCOc1ccc3ccc(=O)[nH]c3n1)CC2 [Compound 65, 7-(4-(7-methyl-3,4-dihydroisoquinolin-2(1H)-yl)butoxy)-1,8-naphthyridin-2(1H)-one] | 10 to 100 nM | > 75% | > 10000 nM | < 10% | < 10 nM | 10 to 25%
16 | N#Cc1ccc2c(c1)CCN(CCCCOc1ccc3ccc(=O)[nH]c3n1)C2 [Compound 57, 2-(4-((7-oxo-7,8-dihydro-1,8-naphthyridin-2-yl)oxy)butyl)-1,2,3,4-tetrahydroisoquinoline-6-carbonitrile] | 10 to 100 nM | > 75% | > 10000 nM | < 10% | > 10000 nM | < 10%
17 | O=C1CCc2ccc(OCCCCN3CCc4nn(-c5cccc(F)c5)cc4C3)cc2N1 [Compound 36, 7-(4-(2-(3-fluorophenyl)-6,7-dihydro-2H-pyrazolo[4,3-c]pyridin-5(4H)-yl)butoxy)-3,4-dihydroquinolin-2(1H)-one] | > 10000 nM | < 10% | < 10 nM | > 75% | < 10 nM | > 75%
18 | O=c1ccc2ccc(OCCCCN3CCc4cccc(C(F)(F)F)c4C3)nc2[nH]1 [Compound 63, 7-(4-(8-(trifluoromethyl)-3,4-dihydroisoquinolin-2(1H)-yl)butoxy)-1,8-naphthyridin-2(1H)-one] | 10 to 100 nM | > 75% | > 10000 nM | < 10% | > 10000 nM | < 10%
19 | O=C1CCc2ccc(OCCCCN3CCc4cc(F)ccc4C3)nc2N1 [Compound 72, 7-(4-(6-fluoro-3,4-dihydroisoquinolin-2(1H)-yl)butoxy)-3,4-dihydro-1,8-naphthyridin-2(1H)-one] | 10 to 100 nM | > 75% | > 10000 nM | < 10% | > 10000 nM | < 10%
20 | O=c1ccc2ccc(OCCCCN3CCc4nn(-c5ccccn5)cc4C3)nc2[nH]1 [Compound 67, 7-(4-(2-(pyridin-2-yl)-6,7-dihydro-2H-pyrazolo[4,3-c]pyridin-5(4H)-yl)butoxy)-1,8-naphthyridin-2(1H)-one] | 100 to 1000 nM | > 75% | > 10000 nM | < 10% | 10 to 100 nM | 10 to 25%
21 | O=C1CCc2ccc(OCCCCN3CCc4ccccc4C3)cc2N1 [Compound 91, 7-(4-(3,4-dihydroisoquinolin-2(1H)-yl)butoxy)-3,4-dihydroquinolin-2(1H)-one] | 10 to 100 nM | > 75% | < 10 nM | 10 to 25% | < 10 nM | 25 to 50%
22 | O=C1CCc2ccc(OCCCCN3CCc4nn(-c5ccccc5F)cc4C3)cc2N1 [Compound 35, 7-(4-(2-(2-fluorophenyl)-6,7-dihydro-2H-pyrazolo[4,3-c]pyridin-5(4H)-yl)butoxy)-3,4-dihydroquinolin-2(1H)-one] | 10 to 100 nM | > 75% | > 10000 nM | < 10% | > 10000 nM | < 10%
23 | O=C1CCc2ccc(OCCCCN3CCc4c(Cl)cccc4C3)nc2N1 [Compound 76, 7-(4-(5-chloro-3,4-dihydroisoquinolin-2(1H)-yl)butoxy)-3,4-dihydro-1,8-naphthyridin-2(1H)-one] | > 10000 nM | < 10% | < 10 nM | > 75% | < 10 nM | > 75%
24 | O=C1NCCc2ccc(OCCCCN3CCc4cc(Cl)ccc4C3)nc2N1 [Compound 85, 8-(4-(6-chloro-3,4-dihydroisoquinolin-2(1H)-yl)butoxy)-4,5-dihydro-1H-pyrido[2,3-d][1,3]diazepin-2(3H)-one] | 10 to 100 nM | > 75% | > 10000 nM | < 10% | > 10000 nM | < 10%
25 | O=C1CCc2ccc(OCCCCN3CCc4nn(-c5ccc(F)cc5)cc4C3)cc2N1 [Compound 37, 7-(4-(2-(4-fluorophenyl)-6,7-dihydro-2H-pyrazolo[4,3-c]pyridin-5(4H)-yl)butoxy)-3,4-dihydroquinolin-2(1H)-one] | 10 to 100 nM | > 75% | > 10000 nM | < 10% | > 10000 nM | < 10%
26 | N#Cc1cccc2c1CCN(CCCCOc1ccc3ccc(=O)[nH]c3n1)C2 [Compound 62, 2-(4-((7-oxo-7,8-dihydro-1,8-naphthyridin-2-yl)oxy)butyl)-1,2,3,4-tetrahydroisoquinoline-5-carbonitrile] | > 10000 nM | < 10% | < 10 nM | 50 to 75% | < 10 nM | > 75%
